Measured values: PMC4754628 (Scientific Reports, 2016)

What was measured:
hERG LQT2 mutants = conditions: some LQT2 mutants; cited from earlier work
Kv11.1-3.1 [1] = experiment: Quantitative Western blot of Kv11.1-3.1 expression and trafficking (FG/CG bands) after overnight drug treatment; assay type: cell-based, human; conditions: for Trafficking Rescue?: Literature compounds screened for Kv11.1-3.1 trafficking rescue; for Trafficking Rescue? / Kv11.1-3.1 expression and trafficking rescue (FG band) by selective inhibitors of ALLN targets: Western blot; for Kv11.1-3.1 expression and trafficking rescue (FG band) by selective inhibitors of ALLN targets: Kv11.1-3.1 cells, single agents or cocktails
Experimental: HEK 293 cells were cultured at 37 °C (5% CO2) in Glutamax® Dulbecco’s modified Eagle’s Medium/Ham’s F-12 (Life Technologies, Grand Island, NY) supplemented with 1x Non-essential amino acids (Life Technologies, Grand Island, NY), 1x Penicillin/Streptomycin (Life Technologies, Grand Island, NY) and 10% fetal bovine serum (Sigma Aldrich, Saint Louis, MO). For pharmacological treatments, drugs were dissolved in DMSO and added to media at DMSO final concentrations < 0.2%. Cells were incubated in drug-containing media for 16–20 hours prior to assays.
Cells were washed with ice-cold PBS, harvested in ice-cold PBS, and pelleted by centrifugation at 500 g for 5 minutes. Cell pellets were resuspended with Radioimmunoprecipitation assay (RIPA) buffer (Sigma Aldrich, Saint Louis, MO) and rotated at 4 °C for 1 hour. Lysates were cleared by centrifugation at 16,000 g for 10 minutes and supernatants were analyzed for total protein concentration using a BCA kit (Pierce, Rockford, Illinois). […] Proteins were transferred onto 0.45 μm nitrocellulose membranes and incubated for 1hr in Odyssey® PBS blocking buffer (Li-Cor Biosciences, Lincoln, NE). Membranes were probed with anti-HA (1:5,000, GeneTex, Irvine, CA) and anti-NaK-ATPase (1:2,500, GeneTex, Irvine, CA) primary antibodies in Odyssey® PBS blocking buffer overnight at 4 °C. Anti-HA and anti-NaK-ATPase signals were detected using IRdye 800 donkey anti-rabbit (1:20,000, Li-Cor Biosciences, Lincoln, NE) and IRdye 680 donkey anti-mouse (1:20,000, Li-Cor Biosciences), respectively. The Li-Cor Odyssey® imaging system and software was used for antibody detection and quantification.

Kv11.1-1A [2] = experiment: Quantitative immunofluorescence / high content imaging of Kv11.1-1A (sub-cellular and cell surface); assay type: cell-based, human
Experimental: (§1) Stable HEK 293 cell lines expressing either the full-length (1A) or deletion Kv11.1 (3.1) channel variant were plated onto 24 well ibiTreat® plates (ibidi, Martinsried, Germany) and grown until 80–90% confluent. For sub-cellular co-localization studies, cells were fixed with 4% paraformaldehyde in PBS for 15 minutes. Cells were simultaneously permeabilized, blocked, and quenched for background fluorescence by incubation in a PBS solution containing 0.1% Triton X-100, 10% normal goat serum, and 0.75% glycine for 15 minutes. Cells were probed with primary antibodies: anti-extracellular loop hERG (1:1000, Sigma Aldrich, Saint Louis, MO), anti-calnexin (1:1000, Abcam, Cambridge, MA), anti-58K Golgi protein (1:200, Abcam), anti-20s proteasome β1 (1:200, Santa Cruz Biotechnology, Dallas, TX). […]. Cell surface labeling with anti-hERG antibody was performed as described above. Cell images were captured with the Operetta® high content imaging system and quantified with Columbus® image analysis suite (both PerkinElmer, Waltham, MA).
Electrophysisology data analysis was performed using Axograph X® (Axograph, Berkley, CA) All data is presented as mean ± SEM unless specified. […] Microscopy data was analyzed with linear mixed models with fixed effects for the treatment variables with a random intercept by replicate/well – hERG and RFP levels were log2-transformed prior to analysis. […]

Kv11.1-1A [3] = experiment: Co-immunoprecipitation of HA-tagged Kv11.1-1A probed for ubiquitin; assay type: cell-based, human; conditions: bortezomib 16 hours vs DMSO
Experimental: (§2) Dynabeads Protein G® (Life Technologies, Grand Island, NY) were prepared according to the manufacturer’s instructions and incubated with HA.11 anti-HA antibody (BioLegend, San Diego, CA) for 30 minutes and then fixed with BS[3] crosslinking reagent (ThermoFischer Scientific, Waltham, MA) to prevent antibody dissociation. Equal amounts of cell lysates from stably expressing Kv11.1 cell lines were prepared as before and then incubated with the prepared beads overnight at 4 °C. Beads were washed and proteins were eluted per the manufacturer’s instructions and visualized via SDS-PAGE. Membranes were probed with the antibodies described previously and anti-ubiquitin (1:1000, Abcam, Cambridge, MA). Antibody detection was performed as before.

Kv11.1-3.1 [4] = experiment: Co-immunoprecipitation of HA-tagged Kv11.1-3.1 probed for ubiquitin; assay type: cell-based, human; conditions: bortezomib 16 hours vs DMSO
Experimental: as §2

Kv11.1-3.1 [5] = experiment: Quantitative immunofluorescence / high content imaging of Kv11.1-3.1 (sub-cellular and cell surface); assay type: cell-based, human
Experimental: as §1
Electrophysisology data analysis was performed using Axograph X® (Axograph, Berkley, CA) All data is presented as mean ± SEM unless specified. Unpaired T-tests, ANOVA, and subsequent Bonferroni corrections were completed using Prism (Graphpad, La Jolla, CA). Microscopy data was analyzed with linear mixed models with fixed effects for the treatment variables with a random intercept by replicate/well – hERG and RFP levels were log2-transformed prior to analysis. P values < 0.05 were accepted as significant.

Kv11.1-1A [6] = conditions: 1A expressing cells
Kv11.1-3.1 [7] = molecular target: T1, Kv11.1-3.1 (Homo sapiens, UniProt Q12809); conditions: treated Kv11.1-3.1 cells, E4031 or DMSO controls, n = 16
Kv11.1-3.1 [8] = molecular target: T1, Kv11.1-3.1

T1 sequence (Q12809 1-1063 isoform Q12809-7): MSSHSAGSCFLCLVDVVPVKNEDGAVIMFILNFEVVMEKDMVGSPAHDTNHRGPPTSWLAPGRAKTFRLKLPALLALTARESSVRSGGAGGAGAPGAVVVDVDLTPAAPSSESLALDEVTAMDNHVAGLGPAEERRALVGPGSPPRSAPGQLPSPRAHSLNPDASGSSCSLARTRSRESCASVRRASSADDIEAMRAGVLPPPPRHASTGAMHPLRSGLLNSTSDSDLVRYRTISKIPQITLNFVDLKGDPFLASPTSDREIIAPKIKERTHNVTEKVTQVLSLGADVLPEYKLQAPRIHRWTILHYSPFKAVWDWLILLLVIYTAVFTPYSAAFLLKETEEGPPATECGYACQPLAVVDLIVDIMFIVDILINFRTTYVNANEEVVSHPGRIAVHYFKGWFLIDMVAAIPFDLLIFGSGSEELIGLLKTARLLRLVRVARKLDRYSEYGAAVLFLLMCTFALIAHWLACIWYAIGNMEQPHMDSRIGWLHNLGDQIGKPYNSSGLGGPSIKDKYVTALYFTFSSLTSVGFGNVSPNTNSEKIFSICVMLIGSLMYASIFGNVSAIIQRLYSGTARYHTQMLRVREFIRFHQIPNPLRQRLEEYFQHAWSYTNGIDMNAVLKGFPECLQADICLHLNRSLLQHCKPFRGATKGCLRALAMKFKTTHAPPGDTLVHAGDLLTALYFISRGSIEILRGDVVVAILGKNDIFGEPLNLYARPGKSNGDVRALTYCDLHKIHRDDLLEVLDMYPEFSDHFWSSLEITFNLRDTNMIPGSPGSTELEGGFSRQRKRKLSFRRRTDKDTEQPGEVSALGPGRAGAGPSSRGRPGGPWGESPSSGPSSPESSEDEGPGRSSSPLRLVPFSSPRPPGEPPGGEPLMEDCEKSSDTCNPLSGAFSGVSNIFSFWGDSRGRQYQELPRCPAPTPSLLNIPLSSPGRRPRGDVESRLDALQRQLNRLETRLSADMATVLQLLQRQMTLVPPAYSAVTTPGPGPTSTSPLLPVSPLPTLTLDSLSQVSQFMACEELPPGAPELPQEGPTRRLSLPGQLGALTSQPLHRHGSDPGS

## CC(=O)N[C@@H](CSC(=O)[C@]1([C@@H](O)C(C)C)NC(=O)[C@H](C)[C@@H]1O)C(=O)O [lactacystin]
hERG LQT2 mutants
  hERG expression in LQT2 mutants: increase hERG expression
  trafficking rescue in LQT2 mutants: trafficking was unable to be rescued

## COc1cc(N)c(Cl)cc1C(=O)NC1CCN(CCCOc2ccc(F)cc2)CC1OC (stereo not shown) [Cisapride]
Kv11.1-3.1 [1]
  Trafficking Rescue?: No

## CCCNC(=O)[C@H]1O[C@@H]1C(=O)N[C@H](C(=O)N1CCC[C@H]1C(=O)O)[C@@H](C)CC [CA 078]
Kv11.1-3.1 [1]
  Kv11.1-3.1 expression and trafficking rescue (FG band) by selective inhibitors of ALLN targets: only bortezomib was effective

## O=C(O)c1ccccc1Nc1ccc(CCc2ccc(Cl)c(Cl)c2)cc1 [PD-118057]
Kv11.1-3.1 [1]
  Trafficking Rescue?: No

## COC(=O)Nc1nc2ccc(C(=O)c3cccs3)cc2[nH]1 [Nocodazole]
Kv11.1-3.1 [1]
  Trafficking Rescue?: No

## CCc1ccccc1NC(=O)CSC(=O)NNC(=O)[C@H](Cc1c[nH]c2ccccc12)NC(=O)OC(C)(C)C [SID 26681509]
Kv11.1-3.1 [1]
  Kv11.1-3.1 expression and trafficking rescue (FG band) by selective inhibitors of ALLN targets: only bortezomib was effective

## N#Cc1ccc(COC[C@H]2O[C@@H](n3c(NCc4ccc(Cl)c(Cl)c4)nc4c(N)ncnc43)[C@H](O)[C@@H]2O)cc1 [VER-155008]
Kv11.1-3.1 [1]
  Trafficking Rescue?: No

## O=C(O)/C(S)=C/c1ccc(I)cc1 [PD 150606]
Kv11.1-3.1 [1]
  Kv11.1-3.1 expression and trafficking rescue (FG band) by selective inhibitors of ALLN targets: only bortezomib was effective

## C[N+](C)(C)CCOC(N)=O.[Cl-] [Carbamoylcholine Chloride]
Kv11.1-3.1 [1]
  Trafficking Rescue?: No

## CC(C)C[C@H](NC(=O)[C@H](Cc1ccccc1)NC(=O)c1cnccn1)B(O)O [bortezomib]
Kv11.1-1A [2]; Kv11.1-1A cells cultured with drug
  elevation of Kv11.1 1A protein level (RFP-normalized fluorescence): modest elevation
Kv11.1-1A [2]; single cells, untreated m = 0.34
  ratio of surface Kv11.1-1A/RFP, slope m of linear regression: 0.40
Kv11.1-1A [3]
  ubiquitin signal of immunoprecipitated 1A channels: accumulation of ubiquitin signal
Kv11.1-3.1 [4]
  ubiquitin signal of immunoprecipitated Kv11.1-3.1 channels: decrease in ubiquitin signal
Kv11.1-3.1 [5]; Kv11.1-3.1 cells cultured with drug, n = 3
  elevation of steady-state Kv11.1-3.1 protein level (RFP-normalized fluorescence): ~3 fold
Kv11.1-3.1 [5]; colocalization domain
  Kv11.1-3.1 proteasome domain expression increase: not found to be significant
Kv11.1-3.1 [5]; subcellular segmentation and colocalization domains
  Kv11.1-3.1 expression in cytoplasm, nuclear regions, ER and Golgi: significantly increased
Kv11.1-3.1 [5]; vs untreated Kv11.1-3.1
  factor of increase of surface Kv11.1-3.1/RFP ratio: 2
Kv11.1-1A [6]
  Kv11.1-1A band changes on Western blot: only increasing 1A CG expression
Kv11.1-3.1 [7]
  signal to background ratio in thallium flux assay: roughly 4 fold
Kv11.1-3.1 [8]; bortezomib 10 nM treated Kv11.1-3.1 cells, n = 8
  cell membrane capacitance normalized peak tail current: 75.93 ± 11.84 pA/pF
Kv11.1-3.1 [8]; treated Kv11.1-3.1 cells vs controls, n = 3
  effect on Kv11.1-3.1 deactivation rate kinetics (τ deactivation): no effect
Kv11.1-3.1 [1]; Kv11.1-3.1 HEK 293 cells, bortezomib 10 nM
  increase of overall channel expression (Total hERG/NaK ATPase): 6 fold
Kv11.1-3.1 [1]; Kv11.1-3.1 HEK 293 cells, bortezomib 10 nM, n = 4
  trafficking efficiency (FG/Total hERG): 25 ± 2%
Kv11.1-3.1 [1]
  Kv11.1-3.1 expression and trafficking rescue (FG band) by selective inhibitors of ALLN targets: effective
